In patent US20230365541A1, “INHIBITOR OF ENHANCER OF ZESTE HOMOLOGUE 2, AND USE THEREOF” (HAISCO PHARMACEUTICALS PTE. LTD., priority 2020, published 2023):

How the values were obtained:
EZH2 = EZH2 (Homo sapiens (Human), UniProt Q15910); assay: Test method for EZH2 enzyme activity; assay type: biochemical; details: H3K27(21-44) and [3H]-SAM
In short: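 EZH2 (3 nM final) preincubated 15 min with compound in Tris-HCl pH 9.0 buffer, then H3K27(21-44) peptide and [3H]-SAM added (mixture at 200 nM and 100 nM) for 60 min at room temperature. Reaction quenched with cold SAM; flashplate scintillation read, inhibition normalized to controls and IC50 fitted.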

SU-DHL-6 cells = assay: SU-DHL-6 cell proliferation test; assay type: cell-based, human; details: Homo sapiens, SU-DHL-6, 336 h, incubated for 14 days
Protocol: SU-DHL-6 cells are human B-cell lymphoma cell lines purchased from ATCC and cultured under the following conditions: RPMI-1640+10% FBS+1% double antibody in a 37° C., 5% CO2 incubator. The cells were plated in a 12-well plate, with a cell concentration of 1×10^5 cells/mL. After the cells were plated, the compounds at different concentrations were added and cultured in a 37° C., 5% CO2 incubator. The cells were counted every 3-4 days (Countstar automated cell counter), centrifuged to remove the supernatant, re-diluted to 1×10^5 cells/mL and plated, and then the compounds at different concentrations were further added. After the mixture was incubated for 14 days and the cells were counted, the test was terminated, and the IC50 values were calculated by using the Origen9.2 software.

[1] = Pharmacokinetic experiment in mice (single intragastric dose, 20 mg/kg); details: male, ICR, mouse, plasma, po
Protocol: (§1) Experimental objective: a single dose of test compounds was administered to ICR mice intragastrically, and the concentrations of the test compounds in plasma of the mice were measured to evaluate pharmacokinetic characteristics of the test compounds in the mice.
(§2) Experimental animal: male ICR mice, about 20-25 g, 6-8 weeks old, 3 mice/compound, purchased from Chengdu Dossy Experimental Animals Co., Ltd.
(§3) Experimental method: on the day of the experiment, three ICR mice were randomly grouped according to their body weight. The animals were fasted with water available for 12 to 14 hours one day before the administration, and were fed 4 hours after the administration.
(§4) Before and after the administration, 0.03 mL of blood was taken from the orbit of the animals under isoflurane anesthesia, and placed in an EDTAK2 centrifuge tube. Centrifugation was carried out at 5000 rpm at 4° C. for 10 min, and the plasma was collected.
(§5) Time points for sample collection comprise 0 (before the administration), 15 min, 30 min, 1 h, 2 h, 4 h, 6 h, 8 h and 24 h.
(§6) Before analysis and detection, all samples were stored at −80° C.

[2] = Pharmacokinetic experiment in mice (intravenous 5 mg/kg or intragastric 30 mg/kg); assay type: in vivo; details: for AUC: read-out: AUC; for C0: read-out: C0; for bioavailability: PO 30 mg/kg vs IV 5 mg/kg
Protocol: The administration was performed according to table 5.
The concentrations of the compounds in EDTA-K2 anticoagulant plasma were determined by the LC-MS/MS method. The linear range of the standard curve of the compounds is 2-2000 ng/mL. After subjected to precipitating proteins with acetonitrile, the samples were analyzed by LC-MS/MS. The standard curve was subjected to a regression calculation using the weighted least square method (W=1/X^2), and quantified by calculating the ratio of test compound peak area to internal standard peak area.
• (1) except to the blank sample, 400 μL of internal standard working solution (Verapamil internal standard concentration in precipitant acetonitrile is 10.0 ng/mL) was added to a 1.5 mL centrifuge tube containing 30 μL of standard curve samples and quality control samples; • 200 μL of internal standard working solution (Verapamil internal standard concentration in precipitant acetonitrile is 10.0 ng/mL) was added to a 1.5 mL centrifuge tube containing 15 μL of unknown samples; • and 400 μL of acetonitrile was added to the blank sample; • (2) the mixture was mixed evenly for about 1 min in a vortex mixer; • (3) centrifugation was carried out at 10000 rpm at 4C for 10 mi; • (4) 175 μL of the supernatant was transferred to a new 96-well polypropylene plate, and then the plate was sealed and placed in a 10° C. sample tray for injection.

[3] = mouse, in vivo, po, 20 mg/kg
Protocol: as §1, §2, §3, §4, §5, §6

[4] = male, ICR, mouse, plasma, iv, 5 mg/kg, IV 5 mg/kg
[5] = male, ICR, mouse, plasma, po, 30 mg/kg, PO 30 mg/kg
[6] = male, ICR, mouse, plasma, po, 30 mg/kg

EZH2, sequence (Q15910 other isoform, or with tags, fused parts or gaps isoform Q15910-2): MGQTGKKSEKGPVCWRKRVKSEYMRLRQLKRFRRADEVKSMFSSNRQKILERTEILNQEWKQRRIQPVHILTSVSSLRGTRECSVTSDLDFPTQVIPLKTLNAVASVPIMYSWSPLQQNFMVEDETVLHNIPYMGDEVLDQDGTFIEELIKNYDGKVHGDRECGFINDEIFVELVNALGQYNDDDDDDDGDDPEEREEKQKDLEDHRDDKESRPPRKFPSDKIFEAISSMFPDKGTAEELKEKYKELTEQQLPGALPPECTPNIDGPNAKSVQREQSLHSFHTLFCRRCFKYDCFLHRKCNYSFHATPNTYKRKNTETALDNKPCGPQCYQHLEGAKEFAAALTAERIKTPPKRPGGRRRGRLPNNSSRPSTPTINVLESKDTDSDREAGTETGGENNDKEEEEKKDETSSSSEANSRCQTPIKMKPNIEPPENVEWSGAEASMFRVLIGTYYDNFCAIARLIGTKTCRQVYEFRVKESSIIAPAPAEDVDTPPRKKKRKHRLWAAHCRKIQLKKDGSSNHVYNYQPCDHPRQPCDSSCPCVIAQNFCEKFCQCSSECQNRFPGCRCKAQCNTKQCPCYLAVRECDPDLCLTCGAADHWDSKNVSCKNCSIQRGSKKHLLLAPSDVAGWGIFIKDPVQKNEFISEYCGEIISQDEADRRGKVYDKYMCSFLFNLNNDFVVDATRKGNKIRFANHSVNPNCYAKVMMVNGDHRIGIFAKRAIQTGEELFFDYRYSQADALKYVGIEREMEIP
EZH2, sequence (O75530 2-441 partner): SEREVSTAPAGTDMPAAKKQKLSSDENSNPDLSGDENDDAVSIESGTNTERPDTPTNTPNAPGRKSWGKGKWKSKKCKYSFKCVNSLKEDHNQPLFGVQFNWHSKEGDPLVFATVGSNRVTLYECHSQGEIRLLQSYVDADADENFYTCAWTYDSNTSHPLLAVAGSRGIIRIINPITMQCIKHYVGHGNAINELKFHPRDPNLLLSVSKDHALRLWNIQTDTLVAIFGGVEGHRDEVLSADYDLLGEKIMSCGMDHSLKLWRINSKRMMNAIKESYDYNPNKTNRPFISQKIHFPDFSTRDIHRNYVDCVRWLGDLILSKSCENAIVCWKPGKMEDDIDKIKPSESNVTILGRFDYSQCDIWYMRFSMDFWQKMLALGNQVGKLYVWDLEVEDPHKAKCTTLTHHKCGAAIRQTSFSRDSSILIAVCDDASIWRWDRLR
EZH2, sequence (Q15022 2-739 partner): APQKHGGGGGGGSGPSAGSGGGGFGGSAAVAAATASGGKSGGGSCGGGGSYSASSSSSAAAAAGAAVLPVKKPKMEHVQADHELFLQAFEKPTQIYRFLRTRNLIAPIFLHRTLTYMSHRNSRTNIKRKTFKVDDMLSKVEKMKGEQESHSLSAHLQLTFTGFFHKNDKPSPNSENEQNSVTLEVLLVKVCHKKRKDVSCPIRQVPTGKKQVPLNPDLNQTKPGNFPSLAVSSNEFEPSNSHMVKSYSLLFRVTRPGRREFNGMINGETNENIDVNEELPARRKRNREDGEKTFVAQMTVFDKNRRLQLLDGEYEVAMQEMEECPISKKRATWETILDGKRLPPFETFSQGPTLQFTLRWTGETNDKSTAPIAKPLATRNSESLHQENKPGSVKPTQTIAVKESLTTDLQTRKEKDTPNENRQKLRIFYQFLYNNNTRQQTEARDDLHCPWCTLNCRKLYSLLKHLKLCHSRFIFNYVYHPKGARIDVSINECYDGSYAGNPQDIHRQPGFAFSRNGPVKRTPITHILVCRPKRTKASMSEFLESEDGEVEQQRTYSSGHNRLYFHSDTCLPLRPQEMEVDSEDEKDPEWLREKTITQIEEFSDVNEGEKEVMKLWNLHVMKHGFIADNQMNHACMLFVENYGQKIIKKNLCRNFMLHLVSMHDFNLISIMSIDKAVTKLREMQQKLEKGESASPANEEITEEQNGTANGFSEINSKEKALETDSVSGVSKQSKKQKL
EZH2, sequence (Q09028 2-425 partner): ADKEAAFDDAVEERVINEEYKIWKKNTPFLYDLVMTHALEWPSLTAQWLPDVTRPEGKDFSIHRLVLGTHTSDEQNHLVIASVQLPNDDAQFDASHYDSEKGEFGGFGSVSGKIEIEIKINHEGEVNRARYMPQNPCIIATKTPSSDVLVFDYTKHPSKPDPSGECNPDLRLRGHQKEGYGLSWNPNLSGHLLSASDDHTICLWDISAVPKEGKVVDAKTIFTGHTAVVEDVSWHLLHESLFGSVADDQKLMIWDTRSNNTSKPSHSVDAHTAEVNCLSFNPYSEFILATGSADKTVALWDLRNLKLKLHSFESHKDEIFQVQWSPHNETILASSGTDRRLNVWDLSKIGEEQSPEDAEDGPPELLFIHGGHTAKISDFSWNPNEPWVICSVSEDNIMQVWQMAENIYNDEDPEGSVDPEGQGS
EZH2, sequence (Q6ZN18 whole entry partner): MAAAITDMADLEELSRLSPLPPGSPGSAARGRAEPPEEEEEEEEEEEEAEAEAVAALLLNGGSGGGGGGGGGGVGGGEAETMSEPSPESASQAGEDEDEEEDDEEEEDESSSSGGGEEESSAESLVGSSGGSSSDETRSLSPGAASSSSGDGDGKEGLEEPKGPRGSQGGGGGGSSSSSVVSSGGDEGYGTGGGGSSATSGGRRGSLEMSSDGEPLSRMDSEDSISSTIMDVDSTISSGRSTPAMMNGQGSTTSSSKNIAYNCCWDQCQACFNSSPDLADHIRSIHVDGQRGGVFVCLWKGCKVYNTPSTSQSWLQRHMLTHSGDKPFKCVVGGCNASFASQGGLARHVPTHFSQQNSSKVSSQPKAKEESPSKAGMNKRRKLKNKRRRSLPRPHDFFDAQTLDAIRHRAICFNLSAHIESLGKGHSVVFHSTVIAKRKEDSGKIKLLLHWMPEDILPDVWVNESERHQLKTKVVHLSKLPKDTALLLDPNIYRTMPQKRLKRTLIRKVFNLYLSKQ

Structure (SMILES): CSc1cc(C)[nH]c(=O)c1CNC(=O)c1cc(Cl)c2c(c1C)OC(C)([C@H]1CC[C@@H](N[C@H]3C[C@H](F)C3)CC1)O2 (single isomer, unassigned) [Compound 34, isomer 1, 7-chloro-2-(4-((trans-3-fluorocyclobutyl)amino)cyclohexyl)-2,4-dimethyl-N-((6-methyl-4-(methylthio)-2-oxo-1,2-dihydropyridin-3-yl)methyl)benzo[d][1,3]dioxole-5-carboxamide]
- IC50 (EZH2): 0.57 nM
- IC50 (SU-DHL-6 cells): 33 nM
- AUC [1]: 1350 ng·h/mL
- Cmax [1]: 598 ng/mL
- half-life [1]: 3.37 h

Structure (SMILES): [2H]C([2H])(NC(=O)c1cc(Cl)c2c(c1C)OC(C)([C@H]1CC[C@@H](NC3CC(F)(F)C3)CC1)O2)c1c(SC)cc(C)[nH]c1=O (single isomer, unassigned) [Compound 44, isomer 1, 7-chloro-2-(4-((3,3-difluorocyclobutyl)amino)cyclohexyl)-2,4-dimethyl-N-((6-methyl-4-(methylthio)-2-oxo-1,2-dihydropyridin-3-yl)methyl-d2)benzo[d][1,3]dioxole-5-carboxamide]
- T1/2 ([2]; ICR mice, IV 5 mg/kg, listed as Compound 44, Isomer 1): 0.427 h
- Cmax ([2]; ICR mice, PO 30 mg/kg, listed as Compound 44, Isomer 1): 971 ng/mL
- AUC [2, 4]: 574 ng·h/mL
- C0 [2, 4]: 2340 ng/mL
- half-life [2, 5]: 1.27 h
- bioavailability [2, 6]: 44.3%
- AUC [2, 5]: 1530 ng·h/mL
- IC50 (EZH2): 0.48 nM
- IC50 (SU-DHL-6 cells): 24 nM

Structure (SMILES): CSc1cc(C)[nH]c(=O)c1CNC(=O)c1cc(Cl)c2c(c1C)OC(C)(C1CCN(CC3CC(F)(F)C3)CC1)O2 (single isomer, unassigned; isomer 1) [Compound 10, isomer 1, 7-chloro-2-(1-((3,3-difluorocyclobutyl)methyl)piperidin-4-yl)-2,4-dimethyl-N-((6-methyl-4-(methylthio)-2-oxo-1,2-dihydropyridin-3-yl)methyl)benzo[d][1,3]dioxole-5-carboxamide]
- Conclusion on pharmacokinetics [3]: Conclusion: the compounds of the present disclosure, especially isomer 1 of compound 10 and isomer 1 of compound 34, have good pharmacokinetics with long half-life and short time to reach the highest concentration.
- Curve area AUC [3]: 1097 h · ng · mL − 1
- Half-life T1/2 [3]: 1.72 h
- Plasma drug concentration Cmax [3]: 1238 ng/mL
- Time to reach peak Tmax [3]: 0.25

Structure (SMILES): CNS(=O)(=O)N1CCC(C2(C)Oc3c(Cl)cc(C(=O)NCc4c(SC)cc(C)[nH]c4=O)c(C)c3O2)CC1 (centres unmarked) [Compound 26, 7-chloro-2,4-dimethyl-N-((6-methyl-4-(methylthio)-2-oxo-1,2-dihydropyridin-3-yl)methyl)-2-(1-(N-methylsulfamoyl)piperidin-4-yl)benzo[d][1,3]dioxole-5-carboxamide]
- IC50 (EZH2): 0.52 nM
- IC50 (SU-DHL-6 cells): 63.2 nM

Structure (SMILES): [2H]C([2H])(NC(=O)c1cc(Cl)c2c(c1C)OC(C)(C1CCN(CC3CC3)CC1)O2)c1c(SC)cc(C)[nH]c1=O (centres unmarked) [Compound 27, 7-chloro-2-(1-(cyclopropylmethyl)piperidin-4-yl)-2,4-dimethyl-N-((6-methyl-4-(methylthio)-2-oxo-1,2-dihydropyridin-3-yl)methyl-d2)benzo[d][1,3]dioxole-5-carboxamide]
- half-life [2, 4]: 1.42 h
- AUC [2, 4]: 839 ng·h/mL
- C0 [2, 4]: 1970 ng/mL
- half-life [2, 5]: 0.934 h
- bioavailability [2, 6]: 52.7%
- AUC [2, 5]: 2650 ng·h/mL
- Cmax ([2]; male, ICR, mouse, plasma, po, 30 mg/kg, PO 30 mg/kg, read-out: Cmax): 865 ng/mL
- Tmax ([2]; male, ICR, mouse, plasma, po, 30 mg/kg, PO 30 mg/kg, read-out: Tmax): 2 h
- IC50 (EZH2): 0.52 nM
- IC50 (SU-DHL-6 cells): 93.7 nM

Structure (SMILES): COC(=O)N1CCC(C2(C)Oc3c(Cl)cc(C(=O)NCc4c(SC)cc(C)[nH]c4=O)c(C)c3O2)CC1 (centres unmarked) [Compound 29, methyl-4-(7-chloro-2,4-dimethyl-5-(((6-methyl-4-(methylthio)-2-oxo-1,2-dihydropyridin-3-yl)methyl)carbamoyl)benzo[d][1,3]dioxol-2-yl)piperidine-1-carboxylate]
- IC50 (EZH2): 0.44 nM
- IC50 (SU-DHL-6 cells): 77.9 nM

Structure (SMILES): CSc1cc(C)[nH]c(=O)c1CNC(=O)c1cc(Cl)c2c(c1C)OC(C)(C1CCN(CC3(C#N)CC3)CC1)O2 (centres unmarked) [Compound 30, 7-chloro-2-(1-((1-cyanocyclopropyl)methyl)piperidin-4-yl)-2,4-dimethyl-N-((6-methyl-4-(methylthio)-2-oxo-1,2-dihydropyridin-3-yl)methyl)benzo[d][1,3]dioxole-5-carboxamide]
- IC50 (EZH2): 0.66 nM
- IC50 (SU-DHL-6 cells): 22.6 nM

Structure (SMILES): CSc1cc(C)[nH]c(=O)c1CNC(=O)c1cc(Cl)c2c(c1C)OC(C)(C1CCN(CC3CC3(F)F)CC1)O2 (centres unmarked) [Compound 31, 7-chloro-2-(1-((2,2-difluorocyclopropyl)methyl)piperidin-4-yl)-2,4-dimethyl-N-((6-methyl-4-(methylthio)-2-oxo-1,2-dihydropyridin-3-yl)methyl)benzo[d][1,3]dioxole-5-carboxamide]
- IC50 (EZH2): 0.52 nM
- IC50 (SU-DHL-6 cells): 68 nM

Structure (SMILES): CSc1cc(C)[nH]c(=O)c1CNC(=O)c1cc(Cl)c2c(c1C)OC(C)(C1CCN(CC3CCC3)CC1)O2 (centres unmarked) [Compound 37, 7-chloro-2-(1-(cyclobutylmethyl)piperidin-4-yl)-2,4-dimethyl-N-((6-methyl-4-(methylthio)-2-oxo-1,2-dihydropyridin-3-yl)methyl)benzo[d][1,3]dioxole-5-carboxamide]
- IC50 (EZH2): 0.44 nM
- IC50 (SU-DHL-6 cells): 32.1 nM

Structure (SMILES): CSc1cc(C)[nH]c(=O)c1CNC(=O)c1cc(Cl)c2c(c1C)OC(C)(C1CCN(CC3COC3)CC1)O2 (centres unmarked) [Compound 38, 7-chloro-2,4-dimethyl-N-((6-methyl-4-(methylthio)-2-oxo-1,2-dihydropyridin-3-yl)methyl)-2-(1-(oxetan-3-ylmethyl)piperidin-4-yl)benzo[d][1,3]dioxole-5-carboxamide]
- IC50 (EZH2): 0.7 nM
- IC50 (SU-DHL-6 cells): 14.1 nM
